Results: patent EP3442966B1, “NOVEL N-[(PYRIMIDINYLAMINO)PROPANYL]- AND N-[(PYRIDINYLAMINO)PROPANYL]ARYLCARBOXAMIDES” (Boehringer Ingelheim International GmbH, priority 2016, dated 2017)
Where two headings read alike, the source gives them in different places.

Legend:
OX2R [1] = biological target: T1, OX2R (Homo sapiens, UniProt O43614); conditions: WO2016/034882 Table 2 (Method A), cited from earlier work; for IC50: conversion of pIC50
T1 sequence (O43614 1-444): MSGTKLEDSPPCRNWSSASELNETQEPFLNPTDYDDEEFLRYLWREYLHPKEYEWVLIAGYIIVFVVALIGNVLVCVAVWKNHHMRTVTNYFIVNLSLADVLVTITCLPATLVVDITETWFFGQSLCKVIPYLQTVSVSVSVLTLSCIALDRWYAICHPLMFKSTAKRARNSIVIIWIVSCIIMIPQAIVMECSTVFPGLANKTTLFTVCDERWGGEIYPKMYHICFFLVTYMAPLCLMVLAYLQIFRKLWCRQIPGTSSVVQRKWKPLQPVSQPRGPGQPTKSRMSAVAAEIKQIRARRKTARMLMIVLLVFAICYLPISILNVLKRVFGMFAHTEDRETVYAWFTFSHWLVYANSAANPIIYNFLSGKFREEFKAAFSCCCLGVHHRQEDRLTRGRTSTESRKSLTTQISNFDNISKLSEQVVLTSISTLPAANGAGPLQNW

OX2R [2] = biological target: T1, OX2R; conditions: WO2016/034882 Table 3 (Method B), cited from earlier work; for IC50: conversion of pIC50
human Orexin 1 receptor = biological target: T2, human Orexin 1 receptor (Homo sapiens, UniProt O43613); assay: Assay A: in vitro testing of OX1R potency, OX1R IP1 (HTRF) in CHO-K1/hOx1 cells; format: cell-based
T2 construct: stably expressing the full-length human Orexin 1 receptor; expressed in transfected cells; host or cells: CHO-K1 (CHO-K1/hOx1), co-expressing the aequorin photoprotein
T2 sequence (O43613 1-425): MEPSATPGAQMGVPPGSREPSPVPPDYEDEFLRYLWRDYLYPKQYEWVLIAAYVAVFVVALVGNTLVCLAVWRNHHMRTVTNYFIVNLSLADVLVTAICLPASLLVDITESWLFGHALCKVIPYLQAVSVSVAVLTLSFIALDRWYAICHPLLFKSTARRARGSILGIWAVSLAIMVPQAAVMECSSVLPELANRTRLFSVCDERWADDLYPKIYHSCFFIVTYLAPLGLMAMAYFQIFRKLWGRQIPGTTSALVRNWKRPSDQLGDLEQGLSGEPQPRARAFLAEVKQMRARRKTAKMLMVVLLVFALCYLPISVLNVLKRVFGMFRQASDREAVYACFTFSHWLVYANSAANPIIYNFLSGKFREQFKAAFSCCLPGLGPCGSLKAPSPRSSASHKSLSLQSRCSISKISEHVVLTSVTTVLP
Excerpt: Activation of the orexin receptors expressed in cell lines results in an increase in intracellular IP3 concentration. IP1, a downstream metabolite of IP3, accumulates in cells following receptor activation and is stable in the presence of LiCI. Using Homogeneous Time-Resolved Fluorescence technology with Lumi4-Tb cryptate (commercially available from Cisbio Bioassay) and a suitable fluorescence plate reader. […] This technique is used to characterize pharmacological modification of the orexin receptors.
IP1 measurements are performed in CHO-K1 cells stably expressing the full-length human Orexin 1 receptor and the aequorin photoprotein. Cells are cultivated in Ham's nutrient mixture F12 medium with 10% fetal calf serum, in a 37°C, 95% humidity and 5% CO2 incubator. The CHO-K1/hOx1 cell mass is expanded to larger cell numbers. The cells are obtained as frozen cells in cryo-vials and stored until use at -150°C.
In preparation for the assay, 24 hours before the assay, the cells are thawed at 37°C and immediately diluted with cell culture medium. After centrifugation, the cell pellet is re-suspended in medium and then distributed into the assay plates with a density of 10000 cells/25 µL per well. The plates are incubated for one hour at room temperature to reduce edge effects before they are incubated for 24 hours at 37°C/5% CO2. Compounds are prepared by an 8-point serial dilution in DMSO and a final dilution step into assay buffer (HBSS with 20 mM HEPES, 0.1% BSA and 50 mM LiCl, pH 7.4) to ensure a final DMSO concentration of 1% in the assay.
On the day of the assay, cells in the plate are washed twice with 60 µL assay buffer (20 µL buffer remained in the wells after washing), followed by adding 5 µL per well of compounds diluted in assay buffer. After 15 minutes of incubation at room temperature 5 µL per well of Orexin A peptide (final concentration: 0.5 nM, and/or 50 nM for selected compounds) dissolved in assay buffer is added to the assay plate. The assay plate is incubated for 60 minutes at 37°C. Then 5 µL per well of Anti-IP1-Cryptate Tb solution and 5 µL per well of IP1-d2 dilution are added and the plate is incubated for a further 60 minutes light protected at room temperature.
8-point four parametric non-linear curve fitting and determination of IC50 values and Hill slopes is performed using a regular analysis software e.g. AssayExplorer (Accelrys).

human orexin 2 receptor = biological target: T3, human orexin 2 receptor (Homo sapiens, UniProt O43614); assay: Assay B: in vitro testing of OX2R potency, OX2R IP1 (HTRF) in CHO-K1/hOx2 cells; format: cell-based; conditions: 0.5 nM Orexin A concentration
T3 construct: stably expressing the full-length human orexin 2 receptor; expressed in transfected cells; host or cells: CHO-K1 (CHO-K1/hOx2), co-expressing the aequorin photoprotein
T3 sequence (O43614 1-444): T1 sequence (O43614 1-444)

OX1R [3] = biological target: T4, OX1R (Homo sapiens, UniProt O43613); assay: OX1R assay of WO2016/034882, Table 3 (Method B); format: cell-based; conditions: ratio from WO2016/034882 Table 3 (Method B) values
T4 sequence (O43613 1-425): T2 sequence (O43613 1-425)

OX2R [4] = biological target: T1, OX2R; conditions: data as described in WO03/051872 (page 16-18); given as a range; cited from earlier work
OX1R [5] = biological target: T4, OX1R; conditions: data as described in WO03/051872 (page 16-18); given as a range; cited from earlier work
[6] = selectivity ratio, OX1R Kb at 50 nM Orexin A, OX2R Kb at 0.5 nM Orexin A

Compound | OX2R Kb / OX1R Kb (human Orexin 1 receptor; [6]) | other results
CC[C@@H](CNc1ccc(Cl)cn1)N(C)C(=O)c1cc(C)ccc1-n1nccn1 [Ex 1 in WO2016/ 034882] |  | IC50 (OX2R [1]): 1260 nM
CC[C@@H](CNc1ncc(C(F)(F)F)cn1)N(C)C(=O)c1cc(Cl)ccc1-n1nccn1 [Ex 39 in WO2016/ 034882] |  | IC50 (OX2R [2]): 1580 nM; OX2R pIC50 (OX2R [1]): < 5.0; IC50 (OX2R [1]): < 10000 nM
CC[C@@H](CNc1ccc(C(F)(F)F)cn1)N(CC)C(=O)c1nc(C)ccc1-n1nccn1 [Ex 71 in WO2016/ 034882] |  | OX2R pIC50 (OX2R [2]): 6.6; OX2R Kb / OX1R Kb (human Orexin 1 receptor): 905
CC[C@@H](CNc1ncc(C(F)(F)F)cn1)N(CC)C(=O)c1nc(C)ccc1-n1nccn1 [Ex 73 in WO2016/ 034882] |  | OX2R pIC50 (OX2R [2]): < 6.0; IC50 (OX2R [2]): > 1000 nM
CC[C@@H](CNc1ncc(C(F)(F)F)cn1)N(C)C(=O)c1nc(C)ccc1-c1ncccn1 [Ex 84 in WO2016/ 034882] |  | Kb (human orexin 2 receptor): 229 nM
CC[C@@H](CNc1ncc(C(F)(F)F)cn1)N(C)C(=O)c1c(F)cccc1-n1nccn1 [Ex 91 in WO2016/ 034882] |  | OX2R pIC50 (OX2R [2]): < 5.1; Kb (human orexin 2 receptor): 313 nM; OX2R IC50 / OX1R IC50 (OX1R [3]): Table 3: 318
CCN(C(=O)c1c(-n2nccn2)ccc(C)c1F)[C@@H](C)CNc1ncc(C(F)(F)F)cn1 [Example 1] | 529 | 
CCN(C(=O)c1cc(C)ccc1-n1nccn1)[C@@H](C)CNc1ncc(C(F)(F)F)cn1 [Example 2] | 379 | 
CCN(C(=O)c1cc(OC)ccc1-n1nccn1)[C@@H](C)CNc1ncc(C(F)(F)F)cn1 [Example 4] | 736 | 
CCN(C(=O)c1ccc(C)cc1-n1nccn1)[C@@H](C)CNc1ncc(C(F)(F)F)cn1 [Example 5] | 1783 | 
Cc1nc(C(=O)N(C)CCNc2ncc(Br)cn2)c(-c2ccc(F)cc2)s1 [Example 6 in WO03/051872] |  | OX2R pKb (OX2R [4]): <6.6 to 7.4; OX1R pKb (OX1R [5]): 6.4 to 7.4
CCN(C(=O)c1nc(C)sc1-c1ccccc1)[C@@H](C)CNc1ncc(C(F)(F)F)cn1 [Example 6] | 527 | 
CCN(C(=O)c1ccc(Cl)cc1-n1nccn1)[C@@H](C)CNc1ncc(C(F)(F)F)cn1 [Example 7] | 922 | 
CCN(C(=O)c1nc(C)sc1-c1ccc(F)cc1)[C@@H](C)CNc1ncc(C(F)(F)F)cn1 [Example 8] | 367 | 
CCN(C(=O)c1cc(C)ccc1-n1nccn1)[C@@H](C)CNc1ccc(Cl)cn1 [Example 10] | 403 | 
CCN(C(=O)c1cccc(F)c1-c1ncccn1)[C@@H](C)CNc1ccc(C(F)(F)F)cn1 [Example 11] | 212 | 
CCN(C(=O)c1cccc(F)c1-c1ncccn1)[C@@H](C)CNc1ccc(F)c(C(F)(F)F)n1 [Example 12] | 216 | 
CCN(C(=O)c1cc(F)ccc1-c1ncccn1)[C@@H](C)CNc1ncc(C(F)(F)F)cc1F [Example 13] | 438 | 
CCN(C(=O)c1ccc(C)c(C)c1-n1nccn1)[C@@H](C)CNc1ccc(Cl)cn1 [Example 14] | 1018 | 
CCN(C(=O)c1cccc(F)c1-n1nccn1)[C@@H](C)CNc1ccc(C(F)(F)F)cn1 [Example 15] | 880 | 
CCN(C(=O)c1cccc(F)c1-n1nccn1)[C@@H](C)CNc1ncc(C(F)(F)F)cc1F [Example 16] | 560 | 
CCN(C(=O)c1cccc(F)c1-n1nccn1)[C@@H](C)CNc1ccc(Cl)cn1 [Example 17] | 268 | 
CCN(C(=O)c1cccc(F)c1-n1nccn1)[C@@H](C)CNc1ccc(F)c(C(F)(F)F)n1 [Example 18] | 209 | 
CCN(C(=O)c1nccc(C(F)(F)F)c1-c1ccn(C)n1)[C@@H](C)COc1ccc(C(F)(F)F)cn1 [Example 19] | 230 | 
CCN(C(=O)c1ccc(OC)cc1-n1nccn1)[C@@H](C)CNc1ncc(C(F)(F)F)cn1 [Example 20] | 1264 | 
